Test results taken from PMC8086025, “A benzopyran with antiarrhythmic activity is an inhibitor of Kir3.1-containing potassium channels” (The Journal of Biological Chemistry, 2021).

Legend:
Dopamine transporter = target: T1, Dopamine transporter (Homo sapiens, UniProt Q01959); assay: Radioligand binding, [3H]BTCP
T1 construct: expressed in transfected cells; host or cells: CHO cells

Kv1.5 = Kv1.5 (Homo sapiens, UniProt P22460); assay: Cloned cardiac ion channel manual patch clamp, Kv1.5; type: cell-based; conditions: MPC (manual patch clamp)
Experimental: For the data shown in Table S6, HEK293 cells expressing Kir3.1/4, Kir6.2/SUR2A (provided by Dr Andrew Tinker), Kir3.4, Kir2.1, and CHO cell lines stably expressing hERG KV1.5, KV4.3, NaV1.5 were maintained in media containing 10% FCS and appropriate selection antibiotic. Cells were grown either in suspension or in T-flasks and routinely passaged. Cells for patch clamping experiments were plated onto glass cover slips prior to use. Cells for automated patch clamping experiments were freshly prepared on each experimental day.
Standard giga-seal whole-cell patch-clamp techniques were performed at room temperature using glass pipettes (2–5 MΩ). HEKA EPC9/10 amplifiers and Pulse software were used for data acquisition. Series resistance was compensated by >70%. Experimental solutions are given under Supporting information. […]
Ionic current recordings were analyzed using HEKA software. […]
Inhibition of current (or leak-subtracted current) was calculated from steady-state current recorded in the absence (IControl) and presence of test-article (IIntervention). […]
Concentration-response data were fitted with a sigmoidal function of the form above, where YMin and YMax represent maximum and minimum current inhibition which were constrained to 100 and 0 respectively and x is the Log[DRUG (M)] based on GraphPad Prism analysis. % inhibition was calculated as in Equation 1. […]

Kir3.4 = target: T2, Kir3.4 (Homo sapiens, UniProt P48544); assay: Cloned cardiac ion channel patch clamp, Kir3.4; type: cell-based
T2 construct: expressed in transfected cells
T2 sequence (P48544 whole entry): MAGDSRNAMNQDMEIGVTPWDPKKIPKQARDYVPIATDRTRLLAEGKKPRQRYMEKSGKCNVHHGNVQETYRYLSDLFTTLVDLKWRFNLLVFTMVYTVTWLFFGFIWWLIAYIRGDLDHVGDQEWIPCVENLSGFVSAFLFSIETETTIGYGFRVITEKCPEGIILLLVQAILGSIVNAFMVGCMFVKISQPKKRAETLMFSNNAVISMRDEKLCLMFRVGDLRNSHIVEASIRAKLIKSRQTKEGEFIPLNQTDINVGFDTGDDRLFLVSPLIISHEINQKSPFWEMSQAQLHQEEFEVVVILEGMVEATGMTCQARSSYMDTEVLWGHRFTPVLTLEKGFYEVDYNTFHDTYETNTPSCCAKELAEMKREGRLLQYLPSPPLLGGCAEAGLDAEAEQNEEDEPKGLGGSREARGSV

T1 sequence (Q01959 whole entry): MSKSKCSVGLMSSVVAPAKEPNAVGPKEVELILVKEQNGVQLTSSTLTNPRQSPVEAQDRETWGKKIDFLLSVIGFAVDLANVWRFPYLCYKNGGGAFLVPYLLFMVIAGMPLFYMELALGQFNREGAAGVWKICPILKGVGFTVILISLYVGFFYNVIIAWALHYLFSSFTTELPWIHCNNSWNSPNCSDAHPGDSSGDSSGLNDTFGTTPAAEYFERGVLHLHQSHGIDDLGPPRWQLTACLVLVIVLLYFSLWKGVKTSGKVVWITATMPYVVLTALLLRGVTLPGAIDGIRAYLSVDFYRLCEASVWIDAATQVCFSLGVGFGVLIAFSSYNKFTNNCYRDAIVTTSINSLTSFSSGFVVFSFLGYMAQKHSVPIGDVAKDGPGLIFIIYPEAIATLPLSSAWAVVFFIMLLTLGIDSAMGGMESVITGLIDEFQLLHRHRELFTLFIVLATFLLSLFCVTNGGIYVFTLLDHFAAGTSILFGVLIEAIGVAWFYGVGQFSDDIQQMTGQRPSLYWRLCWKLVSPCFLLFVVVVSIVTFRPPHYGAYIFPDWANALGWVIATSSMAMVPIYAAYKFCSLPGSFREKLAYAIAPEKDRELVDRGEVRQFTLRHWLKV
Kv1.5, sequence (P22460 whole entry): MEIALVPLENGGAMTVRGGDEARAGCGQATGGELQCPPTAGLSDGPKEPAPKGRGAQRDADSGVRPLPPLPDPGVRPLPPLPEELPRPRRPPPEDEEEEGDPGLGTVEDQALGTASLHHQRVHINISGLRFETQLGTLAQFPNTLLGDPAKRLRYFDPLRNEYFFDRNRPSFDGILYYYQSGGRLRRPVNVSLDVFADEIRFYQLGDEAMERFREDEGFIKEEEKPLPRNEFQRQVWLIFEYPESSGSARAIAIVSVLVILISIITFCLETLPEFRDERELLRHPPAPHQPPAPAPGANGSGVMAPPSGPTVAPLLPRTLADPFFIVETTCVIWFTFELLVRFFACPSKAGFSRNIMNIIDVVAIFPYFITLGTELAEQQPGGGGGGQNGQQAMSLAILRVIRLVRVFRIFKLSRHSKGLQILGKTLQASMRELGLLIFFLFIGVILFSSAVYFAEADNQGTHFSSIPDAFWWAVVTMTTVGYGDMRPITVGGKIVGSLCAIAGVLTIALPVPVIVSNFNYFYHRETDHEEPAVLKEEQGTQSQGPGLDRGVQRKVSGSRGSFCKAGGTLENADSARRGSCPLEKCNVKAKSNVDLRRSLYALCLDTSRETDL

## Cc1cc(CO)nc2cc3c(cc12)OC(C)(C)[C@H](O)[C@H]3NCCc1ccccc1 [BP-G1, (3R,4S)-7-(hydroxymethyl)-2,2,9-trimethyl-4-(2-phenylethylamino)-3,4-dihydropyrano[2,3-g]quinolin-3-ol]
Dopamine transporter
  IC50: 1 µM
  Ki: 0.55 µM
  nH, Dopamine transporter (h): 1
Dopamine transporter; 10 µM
  % Specific Binding at 10 µM: 91.2%
Dopamine transporter; 10 µM, read-out: % Specific Binding at 10 µM
  inhibition at 10 µM: 91.2%
Kv1.5
  IC50: 16.3 µM
Kir3.4
  IC50: 19.8 µM
